From paper PMC7159882, “Polyunsaturated fatty acid analogues differentially affect cardiac NaV, CaV, and KV channels through unique mechanisms” (eLife, 2020)

Target: T1, Cav1.2/β2/α2δ (Homo sapiens, UniProt Q13936)
T1 construct: expressed in transfected cells; host or cells: Xenopus laevis oocytes (cRNA injection; no ratio printed for the β2 combination)
Assay: Two-electrode voltage clamp of Cav1.2/β2/α2δ expressed in Xenopus oocytes
Type: cell-based
Settings: co-expression with β2 subunit instead of β3
Description: Molecular Biology cRNA encoding Kv7.1 (UniProt: P51787), KCNE1 (UniProt: P15382.1), Nav1.5 (UniProt: Q14524.1), Nav β1 (UniProt: […]), Nav β3 (UniProt: […]), Cav1.2 (GenBank: CAA84346), Cav β3 (Uniprot: P54286), Cav β2 (Uniprot: P54288), and Cav α2δ (Uniprot: P13806) were transcribed using the mMessage mMachine T7 kit (Ambion). 50 ng of cRNA was injected into defolliculated Xenopus laevis oocytes (Ecocyte, Austin, TX): For Kv7.1/KCNE1 channel expression, we injected a 3:1, weight:weight (Kv7.1:KCNE1) cRNA ratio. For Nav1.5 channel expression, we injected a 2:1, weight:weight (Nav1.5:β1) cRNA ratio. For Cav1.2 channel expression, we injected a 2:1:1, weight:weight (Cav1.2:β3:α2δ) cRNA ratio. The exact stoichiometry for channel macromolecular complexes, including α -subunits and auxiliary subunits is not clear for many ion channels. For example, there have been multiple reported stoichiometries for Kv7.1:KCNE1 determined in heterologous expression systems with some groups reporting flexible stoichiometry of 4 Kv7.1: 1–4 KCNE1 and others reporting a fixed stoichiometry of 4 Kv7.1: 2 KCNE1 ([Murray et al., 2016]; [Nakajo et al., 2010]). […]
Xenopus laevis oocytes were recorded in the two-electrode voltage clamp (TEVC) configuration. […]

T1 sequence (Q13936 1-2138 isoform Q13936-20, other chains not shown): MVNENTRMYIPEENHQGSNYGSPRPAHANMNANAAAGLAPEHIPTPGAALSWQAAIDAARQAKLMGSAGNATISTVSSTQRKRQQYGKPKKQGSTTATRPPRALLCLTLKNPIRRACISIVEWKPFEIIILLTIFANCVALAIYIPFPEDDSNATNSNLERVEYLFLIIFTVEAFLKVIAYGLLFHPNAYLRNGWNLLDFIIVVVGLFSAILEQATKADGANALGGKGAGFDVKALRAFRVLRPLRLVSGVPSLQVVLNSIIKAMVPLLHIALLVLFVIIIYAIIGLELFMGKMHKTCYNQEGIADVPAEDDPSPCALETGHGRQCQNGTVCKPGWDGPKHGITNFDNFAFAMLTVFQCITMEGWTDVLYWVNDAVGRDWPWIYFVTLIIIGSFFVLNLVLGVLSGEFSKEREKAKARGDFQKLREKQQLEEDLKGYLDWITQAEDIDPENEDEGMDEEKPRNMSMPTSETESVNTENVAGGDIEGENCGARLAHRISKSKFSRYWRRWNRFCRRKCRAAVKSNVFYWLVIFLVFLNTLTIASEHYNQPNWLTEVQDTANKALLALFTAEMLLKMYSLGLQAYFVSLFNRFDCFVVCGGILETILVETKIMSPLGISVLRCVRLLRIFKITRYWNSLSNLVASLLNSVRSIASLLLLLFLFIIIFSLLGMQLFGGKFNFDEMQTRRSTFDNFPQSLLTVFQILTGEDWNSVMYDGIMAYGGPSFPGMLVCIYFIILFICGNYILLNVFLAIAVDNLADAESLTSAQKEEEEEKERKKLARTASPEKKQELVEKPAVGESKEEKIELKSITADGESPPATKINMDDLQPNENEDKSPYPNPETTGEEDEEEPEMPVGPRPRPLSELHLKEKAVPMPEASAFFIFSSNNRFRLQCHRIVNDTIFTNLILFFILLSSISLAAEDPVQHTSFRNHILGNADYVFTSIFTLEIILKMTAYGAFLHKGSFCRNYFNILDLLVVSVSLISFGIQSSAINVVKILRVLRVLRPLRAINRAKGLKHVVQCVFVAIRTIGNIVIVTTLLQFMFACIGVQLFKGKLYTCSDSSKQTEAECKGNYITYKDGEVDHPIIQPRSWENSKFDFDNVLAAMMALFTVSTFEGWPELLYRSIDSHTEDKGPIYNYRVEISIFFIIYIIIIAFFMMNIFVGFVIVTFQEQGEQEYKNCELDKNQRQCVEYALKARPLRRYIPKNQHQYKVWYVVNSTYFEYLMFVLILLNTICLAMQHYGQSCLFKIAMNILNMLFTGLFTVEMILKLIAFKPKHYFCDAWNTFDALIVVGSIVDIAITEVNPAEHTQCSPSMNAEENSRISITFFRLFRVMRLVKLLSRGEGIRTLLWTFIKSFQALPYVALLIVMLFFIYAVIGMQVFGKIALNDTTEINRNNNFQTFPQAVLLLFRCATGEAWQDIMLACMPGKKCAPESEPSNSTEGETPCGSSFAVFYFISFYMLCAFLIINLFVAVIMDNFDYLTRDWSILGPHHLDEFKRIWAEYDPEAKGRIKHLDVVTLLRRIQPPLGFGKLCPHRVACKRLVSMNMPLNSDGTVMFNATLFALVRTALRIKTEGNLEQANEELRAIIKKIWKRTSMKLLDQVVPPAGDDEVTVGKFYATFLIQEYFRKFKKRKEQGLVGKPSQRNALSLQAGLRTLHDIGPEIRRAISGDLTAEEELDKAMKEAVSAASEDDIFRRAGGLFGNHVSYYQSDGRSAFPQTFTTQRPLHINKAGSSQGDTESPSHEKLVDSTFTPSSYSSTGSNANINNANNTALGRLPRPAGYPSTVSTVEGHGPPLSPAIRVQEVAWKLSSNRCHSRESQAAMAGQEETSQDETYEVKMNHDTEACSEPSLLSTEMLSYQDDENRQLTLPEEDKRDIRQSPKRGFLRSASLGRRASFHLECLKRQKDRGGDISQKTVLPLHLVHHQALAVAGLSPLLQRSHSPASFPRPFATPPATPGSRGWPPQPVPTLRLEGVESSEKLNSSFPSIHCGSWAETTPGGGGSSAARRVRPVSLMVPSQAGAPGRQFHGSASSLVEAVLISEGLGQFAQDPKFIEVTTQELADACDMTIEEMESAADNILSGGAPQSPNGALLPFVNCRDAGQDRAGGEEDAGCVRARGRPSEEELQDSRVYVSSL
T1 sequence (P13806 27-960 partner, other chains not shown): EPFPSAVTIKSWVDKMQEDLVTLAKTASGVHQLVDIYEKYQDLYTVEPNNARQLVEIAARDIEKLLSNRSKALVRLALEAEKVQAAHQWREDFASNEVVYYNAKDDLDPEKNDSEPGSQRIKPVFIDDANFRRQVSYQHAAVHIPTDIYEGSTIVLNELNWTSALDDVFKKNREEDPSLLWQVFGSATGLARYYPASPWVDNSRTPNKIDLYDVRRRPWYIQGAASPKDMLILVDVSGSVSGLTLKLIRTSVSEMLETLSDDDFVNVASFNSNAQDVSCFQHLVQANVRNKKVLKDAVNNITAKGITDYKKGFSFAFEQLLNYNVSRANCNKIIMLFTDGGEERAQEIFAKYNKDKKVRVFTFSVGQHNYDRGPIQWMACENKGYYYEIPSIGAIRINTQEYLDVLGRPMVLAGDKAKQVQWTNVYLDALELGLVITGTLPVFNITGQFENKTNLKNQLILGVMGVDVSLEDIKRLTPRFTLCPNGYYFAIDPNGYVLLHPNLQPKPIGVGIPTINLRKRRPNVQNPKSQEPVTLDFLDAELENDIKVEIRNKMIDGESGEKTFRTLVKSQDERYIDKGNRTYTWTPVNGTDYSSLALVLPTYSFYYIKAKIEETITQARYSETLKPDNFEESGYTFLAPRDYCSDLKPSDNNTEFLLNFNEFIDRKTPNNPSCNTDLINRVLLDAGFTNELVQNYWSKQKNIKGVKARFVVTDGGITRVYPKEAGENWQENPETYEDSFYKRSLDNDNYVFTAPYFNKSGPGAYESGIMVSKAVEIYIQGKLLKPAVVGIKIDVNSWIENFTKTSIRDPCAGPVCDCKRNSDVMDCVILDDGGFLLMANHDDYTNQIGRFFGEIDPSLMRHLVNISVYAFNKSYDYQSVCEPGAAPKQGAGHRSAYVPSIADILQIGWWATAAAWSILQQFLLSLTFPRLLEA
T1 sequence (P13806 961-1106 partner, other chains not shown): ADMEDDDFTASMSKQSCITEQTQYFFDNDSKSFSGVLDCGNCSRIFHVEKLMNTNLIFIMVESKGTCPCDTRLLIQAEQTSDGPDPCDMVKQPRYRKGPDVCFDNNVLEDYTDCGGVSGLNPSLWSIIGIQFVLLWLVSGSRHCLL

Row | Structure (SMILES) | response of Cav1.2/β2/α2δ compared with Cav1.2/β3/α2δ
1 | CCCCC/C=C\C/C=C\CCCCCCCC(=O)NCCS(=O)(=O)O [Lin-taurine, Linoleoyl taurine] | no differences between Cav1.2/β3/α2δ and Cav1.2/β2/α2δ
2 | CCCCC/C=C\C/C=C\CCCCCCCC(=O)NCC(=O)O [Lin-glycine] | no differences between Cav1.2/β3/α2δ and Cav1.2/β2/α2δ

Tested on: Herg channels
Assay: not given
Design: method as in B.H. Bentzen and H. Duff, unpublished data
Settings: up to 10 μM; heterologous systems; ref B.H. Bentzen and H. Duff, unpublished data; cited from earlier work

Row | Structure (SMILES) | effects on currents through Herg channels
3 | CC/C=C\C/C=C\C/C=C\C/C=C\C/C=C\C/C=C\CCC(=O)NCC(=O)O [DHA-glycine, docosahexaenoyl glycine] | neither N-AT nor DHA-glycine up to 10 μM had any significant effects

Target: T2, Cav1.2/β3/α2δ (Homo sapiens, UniProt Q13936)
T2 construct: expressed in transfected cells; host or cells: Xenopus laevis oocytes (cRNA injection, Cav1.2:β3:α2δ 2:1:1 by weight)
T2 sequence (Q13936 1-2138 isoform Q13936-20): as the sequence (Q13936 1-2138 isoform Q13936-20, other chains not shown) above
T2 sequence (P54286 whole entry partner): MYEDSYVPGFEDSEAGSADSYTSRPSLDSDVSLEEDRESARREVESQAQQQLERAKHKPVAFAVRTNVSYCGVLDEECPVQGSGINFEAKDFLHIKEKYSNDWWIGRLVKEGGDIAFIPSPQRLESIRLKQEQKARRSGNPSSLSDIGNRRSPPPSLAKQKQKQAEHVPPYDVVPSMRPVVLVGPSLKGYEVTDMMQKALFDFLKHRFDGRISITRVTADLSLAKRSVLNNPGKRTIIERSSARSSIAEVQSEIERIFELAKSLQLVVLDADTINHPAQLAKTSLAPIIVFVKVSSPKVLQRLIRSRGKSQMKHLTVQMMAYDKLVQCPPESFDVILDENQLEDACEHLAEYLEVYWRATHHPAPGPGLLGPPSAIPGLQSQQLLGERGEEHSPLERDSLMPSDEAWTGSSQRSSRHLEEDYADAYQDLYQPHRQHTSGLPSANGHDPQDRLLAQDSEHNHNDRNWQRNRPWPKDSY
T2 sequence (P13806 27-960 partner): as the sequence (P13806 27-960 partner, other chains not shown) above
T2 sequence (P13806 961-1106 partner): as the sequence (P13806 961-1106 partner, other chains not shown) above
Assay: Two-electrode voltage clamp of Cav1.2/β3/α2δ expressed in Xenopus oocytes (Ba2+ as charge carrier)
Type: cell-based
Settings: 0.2 μM
Description: Molecular Biology cRNA encoding Kv7.1 (UniProt: P51787), KCNE1 (UniProt: P15382.1), Nav1.5 (UniProt: Q14524.1), Nav β1 (UniProt: […]), Nav β3 (UniProt: […]), Cav1.2 (GenBank: CAA84346), Cav β3 (Uniprot: P54286), Cav β2 (Uniprot: P54288), and Cav α2δ (Uniprot: P13806) were transcribed using the mMessage mMachine T7 kit (Ambion). 50 ng of cRNA was injected into defolliculated Xenopus laevis oocytes (Ecocyte, Austin, TX): For Kv7.1/KCNE1 channel expression, we injected a 3:1, weight:weight (Kv7.1:KCNE1) cRNA ratio. For Nav1.5 channel expression, we injected a 2:1, weight:weight (Nav1.5:β1) cRNA ratio. For Cav1.2 channel expression, we injected a 2:1:1, weight:weight (Cav1.2:β3:α2δ) cRNA ratio. The exact stoichiometry for channel macromolecular complexes, including α -subunits and auxiliary subunits is not clear for many ion channels. For example, there have been multiple reported stoichiometries for Kv7.1:KCNE1 determined in heterologous expression systems with some groups reporting flexible stoichiometry of 4 Kv7.1: 1–4 KCNE1 and others reporting a fixed stoichiometry of 4 Kv7.1: 2 KCNE1 ([Murray et al., 2016]; [Nakajo et al., 2010]). The ratios of cRNA of α- and auxiliary subunits that we injected in Xenopus laevis oocytes are such that all α-subunits are assumed to be in complex with auxiliary subunits. This allows a more homogenous population of ion channels with auxiliary subunits. One caveat to expressing ion channels as macromolecular complexes is that there are many other auxiliary subunits that could associate with the channel α -subunit that are present in cardiomyocytes and have the potential to alter PUFA-induced effects, but that are not being co-expressed in our experiments. In this work, we are co-expressing some of the auxiliary subunits that have been primarily reported to associate with their respective α -subunits in cardiomyocytes. Following cRNA injection, cells were incubated for 72–96 hr in standard ND96 solution (96 mM NaCl, 2 mM KCl, 1 mM MgCl2, 1.8 mM CaCl2, 5 mM HEPES; pH = 7.5) containing 1 mM pyruvate at 16°C prior to electrophysiological recordings.
Xenopus laevis oocytes were recorded in the two-electrode voltage clamp (TEVC) configuration. Recording pipettes were filled with 3 M KCl. The recording chamber was filled with ND96 (96 mM NaCl, 2 mM KCl, 1 mM MgCl2, 1.8 mM CaCl2, 5 mM HEPES; pH 7.5). For Cav1.2/β3/α2δ channel recordings, Xenopus oocytes were injected with 50 nl of 100 mM EGTA and incubated at 10°C for 30 min prior to electrophysiological recordings in order to sequester cytosolic calcium. In addition, Cav1.2/β3/α2δ channel recordings were done in Ca^2+-free solutions, using Ba^2+ as the charge carrier, to prevent calcium-dependent inactivation of Cav1.2/β3/α2δ channels. Calcium-dependent inactivation was not studied in this work, due to the presence of large calcium-activated chloride currents present in Xenopus laevis oocytes. PUFAs were obtained from Cayman Chemical (Ann Arbor, MI.) or synthesized in house (Linköping, Sweden) through methods previously described ([Bohannon et al., 2020]) and kept at −20 °C as 100 mM stock solutions in ethanol. Serial dilutions of the different PUFAs were prepared from stocks to make 0.2 μM, 0.7 μM, 2 μM, 7 μM, and 20 μM concentrations in ND96 solutions (pH = 7.5). PUFAs were perfused into the recording chamber using the Rainin Dynamax Peristaltic Pump (Model RP-1) (Rainin Instrument Co., Oakland, CA. USA).
Electrophysiological recordings were obtained using Clampex 10.3 software (Axon, pClamp, Molecular Devices). To measure Kv7.1/KCNE1 currents we apply PUFAs as the membrane potential is stepped every 30 s from −80 mV to 0 mV for 5 s before stepping to −40 mV and back to −80 mV to ensure that the PUFA effects on the current at 0 mV reached steady state. A voltage-step protocol was used to measure the current vs. voltage (I-V) relationship before PUFA application and after the PUFA effects had reached steady state for each concentration of PUFA. […]

Row | Structure (SMILES) | Gmax/Gmax0 | ΔV0.5 (voltage dependence of inactivation) [mV]
4 | CC/C=C\C/C=C\C/C=C\C/C=C\C/C=C\C/C=C\CCC(=O)NCC(=O)O [DHA-glycine, docosahexaenoyl glycine] | 1.0 ± 0.1 | 6.1 ± 3.5
5 | CCCCC/C=C\C/C=C\CCCCCCCC(=O)NCCS(=O)(=O)O [Lin-taurine, Linoleoyl taurine] | 1.0 ± 0.02 | 0.6 ± 0.5
6 | CCCCC/C=C\C/C=C\CCCCCCCC(=O)NCC(=O)O [Lin-glycine] | 1.1 ± 0.03 | 0.1 ± 1.7

Same assay, conditions: 0.2 μM; relative current at 0 mV

Row | Structure (SMILES) | ICa I/I0
7 | CC/C=C\C/C=C\C/C=C\C/C=C\C/C=C\C/C=C\CCC(=O)NCC(=O)O [DHA-glycine, docosahexaenoyl glycine] | 0.9 ± 0.1
8 | CCCCC/C=C\C/C=C\CCCCCCCC(=O)NCCS(=O)(=O)O [Lin-taurine, Linoleoyl taurine] | 1.0 ± 0.02
9 | CCCCC/C=C\C/C=C\CCCCCCCC(=O)NCC(=O)O [Lin-glycine] | 0.9 ± 0.1

Same assay, conditions: 0.7 μM

Row | Structure (SMILES) | Gmax/Gmax0 | ΔV0.5 (voltage dependence of inactivation) [mV]
10 | CC/C=C\C/C=C\C/C=C\C/C=C\C/C=C\C/C=C\CCC(=O)NCC(=O)O [DHA-glycine, docosahexaenoyl glycine] | 1.1 ± 0.1 | 6.4 ± 4.3
11 | CCCCC/C=C\C/C=C\CCCCCCCC(=O)NCCS(=O)(=O)O [Lin-taurine, Linoleoyl taurine] | 0.9 ± 0.02 | 0.9 ± 0.9
12 | CCCCC/C=C\C/C=C\CCCCCCCC(=O)NCC(=O)O [Lin-glycine] | 1.1 ± 0.04 | -0.7 ± 1.8

Same assay, conditions: 0.7 μM; relative current at 0 mV

Row | Structure (SMILES) | ICa I/I0
13 | CC/C=C\C/C=C\C/C=C\C/C=C\C/C=C\C/C=C\CCC(=O)NCC(=O)O [DHA-glycine, docosahexaenoyl glycine] | 1.0 ± 0.1
14 | CCCCC/C=C\C/C=C\CCCCCCCC(=O)NCCS(=O)(=O)O [Lin-taurine, Linoleoyl taurine] | 0.9 ± 0.1
15 | CCCCC/C=C\C/C=C\CCCCCCCC(=O)NCC(=O)O [Lin-glycine] | 0.9 ± 0.1

Same assay, conditions: 2 μM

Row | Structure (SMILES) | Gmax/Gmax0 | ΔV0.5 (voltage dependence of inactivation) [mV]
16 | CC/C=C\C/C=C\C/C=C\C/C=C\C/C=C\C/C=C\CCC(=O)NCC(=O)O [DHA-glycine, docosahexaenoyl glycine] | 1.1 ± 0.1 | 6.1 ± 4.2
17 | CCCCC/C=C\C/C=C\CCCCCCCC(=O)NCCS(=O)(=O)O [Lin-taurine, Linoleoyl taurine] | 0.7 ± 0.05 | -0.3 ± 1.8
18 | CCCCC/C=C\C/C=C\CCCCCCCC(=O)NCC(=O)O [Lin-glycine] | 1.2 ± 0.1 | -2.9 ± 1.4

Same assay, conditions: 2 μM; relative current at 0 mV

Row | Structure (SMILES) | ICa I/I0
19 | CC/C=C\C/C=C\C/C=C\C/C=C\C/C=C\C/C=C\CCC(=O)NCC(=O)O [DHA-glycine, docosahexaenoyl glycine] | 0.9 ± 0.1
20 | CCCCC/C=C\C/C=C\CCCCCCCC(=O)NCCS(=O)(=O)O [Lin-taurine, Linoleoyl taurine] | 0.7 ± 0.1
21 | CCCCC/C=C\C/C=C\CCCCCCCC(=O)NCC(=O)O [Lin-glycine] | 0.9 ± 0.1

Same assay, conditions: 7 μM

Row | Structure (SMILES) | Gmax/Gmax0 | ΔV0.5 (voltage dependence of inactivation) [mV]
22 | CC/C=C\C/C=C\C/C=C\C/C=C\C/C=C\C/C=C\CCC(=O)NCC(=O)O [DHA-glycine, docosahexaenoyl glycine] | 1.0 ± 0.1 | 7.6 ± 3.1
23 | CCCCC/C=C\C/C=C\CCCCCCCC(=O)NCCS(=O)(=O)O [Lin-taurine, Linoleoyl taurine] | 0.6 ± 0.05 | −1.9 ± 2.5
24 | CCCCC/C=C\C/C=C\CCCCCCCC(=O)NCC(=O)O [Lin-glycine] | 1.0 ± 0.1 | −3.0 ± 1.6

Same assay, conditions: 7 μM; listed as lin-glycine

Row | Structure (SMILES) | ΔV0.5 (voltage dependence of inactivation) [mV]
25 | CCCCC/C=C\C/C=C\CCCCCCCC(=O)NCC(=O)O [Lin-glycine] | -3.0 ± 1.6

Same assay, conditions: 7 μM; listed as lin-taurine

Row | Structure (SMILES) | ΔV0.5 (voltage dependence of inactivation) [mV]
26 | CCCCC/C=C\C/C=C\CCCCCCCC(=O)NCCS(=O)(=O)O [Lin-taurine, Linoleoyl taurine] | -1.9 ± 2.5

Same assay, conditions: 7 μM; relative current at 0 mV

Row | Structure (SMILES) | ICa I/I0
27 | CCCCC/C=C\C/C=C\CCCCCCCC(=O)NCCS(=O)(=O)O [Lin-taurine, Linoleoyl taurine] | 0.6 ± 0.1 (p=0.01)

Same assay, conditions: 7 μM; relative current at 0 mV; listed as lin-glycine

Row | Structure (SMILES) | ICa I/I0
28 | CCCCC/C=C\C/C=C\CCCCCCCC(=O)NCC(=O)O [Lin-glycine] | 0.8 ± 0.1

Same assay, conditions: 7 μM; relative current at 0 mV; listed as lin-taurine

Row | Structure (SMILES) | ICa I/I0
29 | CCCCC/C=C\C/C=C\CCCCCCCC(=O)NCCS(=O)(=O)O [Lin-taurine, Linoleoyl taurine] | 0.6 ± 0.1

Same assay, conditions: 20 μM

Row | Structure (SMILES) | Gmax/Gmax0 | ΔV0.5 (voltage dependence of inactivation) [mV]
30 | CC/C=C\C/C=C\C/C=C\C/C=C\C/C=C\C/C=C\CCC(=O)NCC(=O)O [DHA-glycine, docosahexaenoyl glycine] | 1.0 ± 0.1 | 5.2 ± 4.4
31 | CCCCC/C=C\C/C=C\CCCCCCCC(=O)NCCS(=O)(=O)O [Lin-taurine, Linoleoyl taurine] | 0.5 ± 0.04 | -1.2 ± 4.4
32 | CCCCC/C=C\C/C=C\CCCCCCCC(=O)NCC(=O)O [Lin-glycine] | 1.0 ± 0.1 | -3.7 ± 1.5

Same assay, conditions: 20 μM; relative current at 0 mV

Row | Structure (SMILES) | ICa I/I0
33 | CC/C=C\C/C=C\C/C=C\C/C=C\C/C=C\C/C=C\CCC(=O)NCC(=O)O [DHA-glycine, docosahexaenoyl glycine] | 0.9 ± 0.1
34 | CCCCC/C=C\C/C=C\CCCCCCCC(=O)NCCS(=O)(=O)O [Lin-taurine, Linoleoyl taurine] | 0.5 ± 0.1
35 | CCCCC/C=C\C/C=C\CCCCCCCC(=O)NCC(=O)O [Lin-glycine] | 0.7 ± 0.1

Same assay, conditions: 0.2-20 μM

Row | Structure (SMILES) | shift of the voltage dependence of activation
36 | CCCCC/C=C\C/C=C\CCCCCCCC(=O)NCCS(=O)(=O)O [Lin-taurine, Linoleoyl taurine] | without shifting the voltage-dependence of Cav1.2/β3/α2δ activation
